Test results as given in article PMC6774887 (Molecular cancer therapeutics, 2019).

Assays:
AICARFTase (ATIC) [1] = target: T1, AICARFTase (ATIC) (Homo sapiens, UniProt P31939); assay: spectrophotometric THF formation; type: biochemical
MTHFD2 = target: T2, MTHFD2 (Homo sapiens, UniProt P13995); assay: NAD; type: biochemical
T2 sequence (P13995 36-333): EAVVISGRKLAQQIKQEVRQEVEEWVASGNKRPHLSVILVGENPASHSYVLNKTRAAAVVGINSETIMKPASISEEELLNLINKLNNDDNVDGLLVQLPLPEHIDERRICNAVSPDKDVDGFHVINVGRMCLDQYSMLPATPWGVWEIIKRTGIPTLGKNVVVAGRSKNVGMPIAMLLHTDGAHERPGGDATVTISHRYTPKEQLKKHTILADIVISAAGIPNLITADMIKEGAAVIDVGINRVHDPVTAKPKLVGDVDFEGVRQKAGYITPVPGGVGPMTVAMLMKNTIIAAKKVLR

AICARFTase (ATIC) [2] = target: T1, AICARFTase (ATIC); assay: spectrophotometric THF formation from 10-formyl-THF; type: biochemical; settings: Ki = IC50/([S]/KM+[…]); KM of […]-formyl-THF […]
SHMT1 [3] = target: T3, SHMT1 (Homo sapiens, UniProt P34896); assay: coupled SHMT/MTHFD2 assay, NADH fluorescence; type: biochemical; settings: Ki = IC50/([S]/KM+[…]); KM of THF […]; His-MTHFD2 in […] molar excess
T3 sequence (P34896 7-478): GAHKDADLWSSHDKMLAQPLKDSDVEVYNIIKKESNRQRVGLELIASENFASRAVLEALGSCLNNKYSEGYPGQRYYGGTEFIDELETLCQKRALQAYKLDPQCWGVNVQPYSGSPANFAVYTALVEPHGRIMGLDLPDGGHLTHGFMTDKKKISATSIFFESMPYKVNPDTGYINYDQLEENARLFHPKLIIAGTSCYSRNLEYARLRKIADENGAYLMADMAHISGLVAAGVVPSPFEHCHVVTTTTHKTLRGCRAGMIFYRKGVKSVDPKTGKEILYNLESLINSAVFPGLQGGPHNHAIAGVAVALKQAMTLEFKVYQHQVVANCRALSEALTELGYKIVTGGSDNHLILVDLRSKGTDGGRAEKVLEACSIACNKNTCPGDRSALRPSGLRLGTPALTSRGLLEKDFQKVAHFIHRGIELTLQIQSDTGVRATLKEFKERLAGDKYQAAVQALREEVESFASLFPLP

SHMT2 [4] = target: T4, SHMT2 (Homo sapiens, UniProt P34897); assay: coupled SHMT/MTHFD2 assay, NADH fluorescence; type: biochemical; settings: Ki = IC50/([S]/KM+[…]); KM of THF […]; His-MTHFD2 in […] molar excess
T4 sequence (P34897 42-504): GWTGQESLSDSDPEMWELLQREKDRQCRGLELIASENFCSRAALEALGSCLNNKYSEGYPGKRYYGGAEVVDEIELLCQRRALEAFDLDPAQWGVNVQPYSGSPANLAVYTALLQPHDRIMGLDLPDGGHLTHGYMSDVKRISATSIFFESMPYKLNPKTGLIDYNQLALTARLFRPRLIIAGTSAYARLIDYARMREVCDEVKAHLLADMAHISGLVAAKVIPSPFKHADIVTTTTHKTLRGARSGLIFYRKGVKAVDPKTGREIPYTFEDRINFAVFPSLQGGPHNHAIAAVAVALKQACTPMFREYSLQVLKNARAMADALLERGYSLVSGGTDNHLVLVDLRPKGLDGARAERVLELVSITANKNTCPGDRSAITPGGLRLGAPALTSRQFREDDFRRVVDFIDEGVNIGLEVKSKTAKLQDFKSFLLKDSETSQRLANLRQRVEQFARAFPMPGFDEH

SHMT2 [5] = target: T4, SHMT2; assay: coupled SHMT/MTHFD2 assay, NADH fluorescence; type: biochemical; settings: His-MTHFD2 in […] molar excess
SHMT1 [6] = target: T3, SHMT1; assay: coupled SHMT/MTHFD2 assay, NADH fluorescence; type: biochemical; settings: His-MTHFD2 in […] molar excess
[7] = substrate: Nc1nc2c(c(=O)[nH]1)N[C@@H](CN(C=O)c1ccc(C(=O)N[C@@H](CCC(=O)O)C(=O)O)cc1)CN2; assay: spectrophotometric THF formation; type: biochemical, Homo sapiens

T1 sequence (P31939 whole entry): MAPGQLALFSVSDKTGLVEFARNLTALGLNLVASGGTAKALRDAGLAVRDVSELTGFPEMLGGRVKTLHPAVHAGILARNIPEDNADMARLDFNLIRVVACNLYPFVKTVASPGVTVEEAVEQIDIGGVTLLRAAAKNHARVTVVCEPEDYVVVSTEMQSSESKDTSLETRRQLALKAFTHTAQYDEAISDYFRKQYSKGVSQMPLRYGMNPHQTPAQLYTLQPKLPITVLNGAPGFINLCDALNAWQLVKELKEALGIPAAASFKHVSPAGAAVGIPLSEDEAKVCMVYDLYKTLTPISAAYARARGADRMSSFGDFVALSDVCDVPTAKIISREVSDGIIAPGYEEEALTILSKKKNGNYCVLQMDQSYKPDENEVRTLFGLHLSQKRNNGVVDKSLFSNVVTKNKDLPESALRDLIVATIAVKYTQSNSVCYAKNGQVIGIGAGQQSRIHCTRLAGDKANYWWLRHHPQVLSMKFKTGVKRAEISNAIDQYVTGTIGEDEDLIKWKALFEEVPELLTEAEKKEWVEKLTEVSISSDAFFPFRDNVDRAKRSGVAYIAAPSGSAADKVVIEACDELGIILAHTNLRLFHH

Nc1nc2c(c(=O)[nH]1)N[C@@H](CN(C=O)c1ccc(C(=O)N[C@@H](CCC(=O)O)C(=O)O)cc1)CN2 [10-formyl-THF]
Km (AICARFTase (ATIC) [1]): 100 µM

Nc1nc2[nH]c(CCCc3ccc(C(=O)N[C@@H](CCC(=O)O)C(=O)O)s3)cc2c(=O)[nH]1 [AGF94]
NI (no inhibition up to 200 μM inhibitor; Ki column) (MTHFD2): > 200 µM
NI (no inhibition up to 200 μM inhibitor; Ki column) (AICARFTase (ATIC) [2]): > 200 µM

Nc1nc(=O)c2c(CCc3ccc(C(=O)N[C@@H](CCC(=O)O)C(=O)O)cc3)c[nH]c2[nH]1 [PMX]
NI (no inhibition up to 200 μM inhibitor; Ki column) (MTHFD2): > 200 µM
NI (no inhibition up to 200 μM inhibitor; Ki column) (SHMT1 [3]): > 200 µM
NI (no inhibition up to 200 μM inhibitor; Ki column) (SHMT2 [4]): > 200 µM

Nc1nc2c(c(=O)[nH]1)N[C@@H](CNc1ccc(C(=O)N[C@@H](CCC(=O)O)C(=O)O)cc1)CN2 [THF]
Km (SHMT2 [5]): 108 µM
Km (SHMT1 [6]): 62.8 µM

AGF320
NI (no inhibition up to 200 μM inhibitor; Ki column) (MTHFD2): > 200 µM

B1: GARFTase (Homo sapiens) (protein)
chain: ARVAVLISGTGSNLQALIDSTREPNSSAQIDIVISNKAAVAGLDKAERAGIPTRVINHKLYKNRVEFDSAIDLVLEEFSIDIVCLAGFMRILSGPFVQKWNGKMLNIHPSLLPSFKGSNAHEQALETGVTVTGCTVHFVAEDVDAGQIILQEAVPVKRGDTVATLSERVKLAEHKIFPAALQLVASGTVQLGENGKICWVKEE
Km [7]: 84.8 µM
